Experimental data from patent US9902736B2, “1-oxo/acylation-14-acylated oridonin derivative, preparation method therefor and application thereof” (HANGZHOU BENSHENG PHARMACEUTICAL CO., LTD., priority 2012, dated 2018).
≈ marks a conversion by molar mass, not a printed value. One block for each compound: values may come before it.

Experiments:
RPMI 8226 = experiment: Multiple myeloma cell growth inhibition, MTT, 72 h; type: cell-based; conditions: Homo sapiens
Procedure: Multiple myeloma cell lines: RPMI8226 (multiple myeloma), purchased from Fuxiang Bio-tech Co. Ltd., Shanghai, China.
(§1) 6000 well-growing cells were obtained and inoculated into wells of a 96-well cell culture plate. […] On the next day, the 1-oxo/acylated-14-acylated oridonin derivatives of different concentrations were added and mixed uniformly. The plate was placed in a carbon dioxide cell incubator (5% CO2) at 37° C. and incubated for 72 hours. Then the viable cell concentration was determined by MTT method.

Jurkat = experiment: Leukemia cell growth inhibition, MTT, 72 h; type: cell-based, human; conditions: Homo sapiens, Jurkat; 72 h, MTT
Description: (§2) Leukemia cell lines: leukemia cell lines: K562/adr (drug-resistant, chronic myeloid leukemia, CML), NB4 (acute promyelocytic leukemia, AML), Kasumi-1 (acute myeloid leukemia M2 type, AML-M2), Jurkat (acute lymphoblastic leukemia, ALL), all of which were donated by Cancer Research Institute of Zhejiang University, China; and H9 (acute lymphoblastic leukemia, ALL), which was purchased from China Center for Type Culture Collection.
as §1, with “6000 well-growing leukemia cells were” for “6000 well-growing cells were”, “C. and was incubated for” for “C. and incubated for”

NB4 = experiment: Leukemia cell growth inhibition, MTT, 72 h; type: cell-based, human; conditions: Homo sapiens, NB-4; 72 h, MTT
Description: as §2
as §1, with “6000 well-growing leukemia cells were” for “6000 well-growing cells were”, “C. and was incubated for” for “C. and incubated for”

H9 = experiment: Leukemia cell growth inhibition, MTT, 72 h; type: cell-based, human; conditions: Homo sapiens, H9; 72 h, MTT
Description: as §2
as §1, with “6000 well-growing leukemia cells were” for “6000 well-growing cells were”, “C. and was incubated for” for “C. and incubated for”

K562/ADR = experiment: Leukemia cell growth inhibition, MTT, 72 h; type: cell-based; conditions: Homo sapiens
Description: as §2
as §1, with “6000 well-growing leukemia cells were” for “6000 well-growing cells were”, “C. and was incubated for” for “C. and incubated for”

Kasumi-1 = experiment: Leukemia cell growth inhibition, MTT, 72 h; type: cell-based; conditions: Homo sapiens
Description: as §2
as §1, with “6000 well-growing leukemia cells were” for “6000 well-growing cells were”, “C. and was incubated for” for “C. and incubated for”

Hep G2 = experiment: Solid tumor cell growth inhibition, MTT, 72 h; type: cell-based; conditions: Homo sapiens, HepG2
Procedure: (§3) 6000 well-growing human solid tumor cells were obtained and inoculated into wells of a 96-well cell culture plate. The culture medium was DMEM High Glucose cell culture medium containing 10% fetal bovine serum. The plate was placed in a carbon dioxide cell incubator (5% CO2) at 37° C. and incubated for 24 hours. After added with 1-oxo/acylated-14-acylated oridonin derivatives of different concentration and mixed uniformly, the plate was placed in a carbon dioxide cell incubator (5% CO2) at 37° C. and incubated for 72 hours. Then the viable cell concentration was determined by MTT method.

A549 = experiment: Solid tumor cell growth inhibition, MTT, 72 h; type: cell-based; conditions: Homo sapiens
Procedure: as §3

Becap-37 = experiment: Solid tumor cell growth inhibition, MTT, 72 h; type: cell-based; conditions: Homo sapiens
Procedure: as §3

PC-3 = experiment: Solid tumor cell growth inhibition, MTT, 72 h; type: cell-based; conditions: Homo sapiens
Procedure: as §3

SK-OV-3 = experiment: Solid tumor cell growth inhibition, MTT, 72 h; type: cell-based; conditions: Homo sapiens, SK-OV-3, 72 h, MTT; for IC50: read-out: IC50 SK-OV-3; for IC90: read-out: IC90 SK-OV-3
Procedure: as §3

PANC-1 = experiment: Solid tumor cell growth inhibition, MTT, 72 h; type: cell-based; conditions: Homo sapiens
Procedure: as §3

CaEs-17 = experiment: Solid tumor cell growth inhibition, MTT, 72 h; type: cell-based; conditions: Homo sapiens, CaEs17
Procedure: as §3

U87-MG = experiment: Solid tumor cell growth inhibition, MTT, 72 h; type: cell-based; conditions: Homo sapiens, U-87 MG
Procedure: as §3

RKO = experiment: Solid tumor cell growth inhibition, MTT, 72 h; type: cell-based; conditions: Homo sapiens
Procedure: as §3

MG-63 = experiment: Solid tumor cell growth inhibition, MTT, 72 h; type: cell-based; conditions: Homo sapiens
Procedure: as §3

Hela = experiment: Solid tumor cell growth inhibition, MTT, 72 h; type: cell-based, human; conditions: Homo sapiens, HeLa; 72 h, MTT
Procedure: as §3

MGC-803 = experiment: Solid tumor cell growth inhibition, MTT, 72 h; type: cell-based, human; conditions: Homo sapiens, MGC-803; 72 h, MTT
Procedure: as §3

Hep-2 = experiment: Solid tumor cell growth inhibition, MTT, 72 h; type: cell-based, human; conditions: Homo sapiens, HEp-2; 72 h, MTT
Procedure: as §3

CNE = experiment: Solid tumor cell growth inhibition, MTT, 72 h; type: cell-based, human; conditions: for IC50 / IC90: Homo sapiens, CNE, 72 h, MTT
Procedure: as §3

- IC50 (RPMI 8226): 0.46 µg/mL (≈ 0.918 µM)
- IC90 (RPMI 8226): 1.79 µg/mL (≈ 3.57 µM)
- IC50 (Jurkat): 0.81 µg/mL (≈ 1.62 µM)
- IC90 (Jurkat): 2.72 µg/mL (≈ 5.43 µM)
- IC50 (NB4): 0.22 µg/mL (≈ 0.439 µM)
- IC90 (NB4): 0.81 µg/mL (≈ 1.62 µM)
- IC50 (H9): 0.83 µg/mL (≈ 1.66 µM)
- IC90 (H9): 1.82 µg/mL (≈ 3.63 µM)
- IC50 (K562/ADR): 0.71 µg/mL (≈ 1.42 µM)
- IC90 (K562/ADR): 2.07 µg/mL (≈ 4.13 µM)
- IC50 (Kasumi-1): 0.72 µg/mL (≈ 1.44 µM)
- IC90 (Kasumi-1): 2.25 µg/mL (≈ 4.49 µM)
- IC50 (Hep G2): 1.69 µg/mL (≈ 3.37 µM)
- IC90 (Hep G2): 7.48 µg/mL (≈ 14.9 µM)
- IC50 (A549): 2.82 µg/mL (≈ 5.63 µM)
- IC90 (A549): 5.64 µg/mL (≈ 11.3 µM)
- IC50 (Becap-37): 1.12 µg/mL (≈ 2.24 µM)
- IC90 (Becap-37): 3.09 µg/mL (≈ 6.17 µM)
- IC50 (PC-3): 1.82 µg/mL (≈ 3.63 µM)
- IC90 (PC-3): 3.82 µg/mL (≈ 7.63 µM)
- IC50 (SK-OV-3): 1.82 µg/mL (≈ 3.63 µM)
- IC90 (SK-OV-3): 3.82 µg/mL (≈ 7.63 µM)
- IC50 (PANC-1): 2.34 µg/mL (≈ 4.67 µM)
- IC90 (PANC-1): 8.51 µg/mL (≈ 17 µM)
- IC50 (CaEs-17): 1.49 µg/mL (≈ 2.97 µM)
- IC90 (CaEs-17): 5.23 µg/mL (≈ 10.4 µM)
- IC50 (U87-MG): 0.99 µg/mL (≈ 1.98 µM)
- IC90 (U87-MG): 2.82 µg/mL (≈ 5.63 µM)
- IC50 (RKO): 0.66 µg/mL (≈ 1.32 µM)
- IC90 (RKO): 1.49 µg/mL (≈ 2.97 µM)
- IC50 (MG-63): 0.48 µg/mL (≈ 0.958 µM)
- IC90 (MG-63): 2.74 µg/mL (≈ 5.47 µM)
- IC50 (Hela): 1.84 µg/mL (≈ 3.67 µM)
- IC90 (Hela): 5.31 µg/mL (≈ 10.6 µM)
- IC50 (MGC-803): 1.43 µg/mL (≈ 2.85 µM)
- IC90 (MGC-803): 10.7 µg/mL (≈ 21.4 µM)
- IC50 (Hep-2): 1.85 µg/mL (≈ 3.69 µM)
- IC90 (Hep-2): 7.56 µg/mL (≈ 15.1 µM)
- IC50 (CNE): 1.93 µg/mL (≈ 3.85 µM)
- IC90 (CNE): 6.62 µg/mL (≈ 13.2 µM)
SMILES: C=C1C(=O)[C@]23[C@H](OC(=O)c4ccccc4Cl)[C@H]1CC[C@H]2[C@@]12CO[C@@]3(O)[C@@H](O)[C@@H]1C(C)(C)CCC2=O [BS-OR-003]

- IC50 (RPMI 8226): 0.31 µg/mL (≈ 0.645 µM)
- IC90 (RPMI 8226): 1.77 µg/mL (≈ 3.68 µM)
- IC50 (Jurkat): 0.62 µg/mL (≈ 1.29 µM)
- IC90 (Jurkat): 2.7 µg/mL (≈ 5.62 µM)
- IC50 (NB4): 0.13 µg/mL (≈ 0.271 µM)
- IC90 (NB4): 0.76 µg/mL (≈ 1.58 µM)
- IC50 (H9): 0.34 µg/mL (≈ 0.708 µM)
- IC90 (H9): 0.83 µg/mL (≈ 1.73 µM)
- IC50 (K562/ADR): 0.41 µg/mL (≈ 0.853 µM)
- IC90 (K562/ADR): 1.72 µg/mL (≈ 3.58 µM)
- IC50 (Kasumi-1): 0.41 µg/mL (≈ 0.853 µM)
- IC90 (Kasumi-1): 1.68 µg/mL (≈ 3.5 µM)
- IC50 (Hep G2): 0.85 µg/mL (≈ 1.77 µM)
- IC90 (Hep G2): 7.84 µg/mL (≈ 16.3 µM)
- IC50 (A549): 1.71 µg/mL (≈ 3.56 µM)
- IC90 (A549): 4.9 µg/mL (≈ 10.2 µM)
- IC50 (Becap-37): 0.66 µg/mL (≈ 1.37 µM)
- IC90 (Becap-37): 3.3 µg/mL (≈ 6.87 µM)
- IC50 (PC-3): 1.45 µg/mL (≈ 3.02 µM)
- IC90 (PC-3): 3.94 µg/mL (≈ 8.2 µM)
- IC50 (SK-OV-3): 1.45 µg/mL (≈ 3.02 µM)
- IC90 (SK-OV-3): 3.94 µg/mL (≈ 8.2 µM)
- IC50 (PANC-1): 1.31 µg/mL (≈ 2.73 µM)
- IC90 (PANC-1): 8.24 µg/mL (≈ 17.1 µM)
- IC50 (CaEs-17): 0.88 µg/mL (≈ 1.83 µM)
- IC90 (CaEs-17): 4.58 µg/mL (≈ 9.53 µM)
- IC50 (U87-MG): 0.8 µg/mL (≈ 1.66 µM)
- IC90 (U87-MG): 3.24 µg/mL (≈ 6.74 µM)
- IC50 (RKO): 0.31 µg/mL (≈ 0.645 µM)
- IC90 (RKO): 0.87 µg/mL (≈ 1.81 µM)
- IC50 (MG-63): 0.33 µg/mL (≈ 0.687 µM)
- IC90 (MG-63): 0.87 µg/mL (≈ 1.81 µM)
- IC50 (Hela): 1.28 µg/mL (≈ 2.66 µM)
- IC90 (Hela): 3.87 µg/mL (≈ 8.05 µM)
- IC50 (MGC-803): 0.65 µg/mL (≈ 1.35 µM)
- IC90 (MGC-803): 4.88 µg/mL (≈ 10.2 µM)
- IC50 (Hep-2): 1.38 µg/mL (≈ 2.87 µM)
- IC90 (Hep-2): 6.79 µg/mL (≈ 14.1 µM)
- IC50 (CNE): 0.95 µg/mL (≈ 1.98 µM)
- IC90 (CNE): 4.67 µg/mL (≈ 9.72 µM)
SMILES: C=C1C(=O)[C@]23[C@H](OC(=O)c4ccc(C)cc4)[C@H]1CC[C@H]2[C@@]12CO[C@@]3(O)[C@@H](O)[C@@H]1C(C)(C)CCC2=O [BS-OR-004]
- anti-CNE activity increased (CNE; in comparison with oridonin): ~6 fold
